As usually defined, the EC50 is the midpoint of the concentration-response curve. Low readings indicate greater potency, high ones weaker potency. One may read the inhibition as the drop in the measured response relative to a control, in per cent.

The target in one test is full-length HAQ STING (Homo sapiens (Human), UniProt Q86WV6, G230A/H232R/R293Q/R71H). As to the kind of experiment: 3H-cGAMP filtration binding assay (HAQ STING). The note with it: competition with tritiated cGAMP, HAQ STING membrane. The source says:
The ability of compounds to bind STING is quantified by the ability to compete with tritiated cGAMP ligand for human STING receptor membrane using a radioactive filter-binding assay. The binding assay employs STING receptor obtained from Hi-Five cell membranes overexpressing full-length HAQ STING prepared in-house and tritiated cGAMP ligand also purified in-house.
The ability of compounds to bind STING is quantified by their ability to compete with tritiated cGAMP ligand for human STING receptor membrane using a radioactive filter-binding assay. The binding assay employs STING receptor obtained from Trichoplusia ni cell membranes (T. ni; Expression Systems, cat #94-002F, www.exressionsystems.com) overexpressing full-length HAQ STING and tritiated cGAMP ligand.
The basic HAQ STING filtration assay protocol is as follows:
Compound and membrane then preincubated for 60 min at RT to allow compound binding to equilibrate. Following equilibration, 8 nM of [^3H]c-GAMP ligand was prepared by diluting into assay buffer, and 50 uL of this working stock was then manually added to each well of the assay plate. […] The filter plates were then dried at 55° C. for 30 min using a pressurized oven before 30 uL of ULTIMA GOLD F scintillate was added to each well. Tritium levels for each reaction well were then measured using a PerkinElmer TopCount plate reader.
(§1) After normalization to controls, the percent activity for each compound concentration was calculated by measuring the amount of remaining radioactivity. The plot of percent activity versus the log of compound concentration was fit with a 4-parameter dose response equation to calculate EC50 values.

The next test has as its target full-length WT STING (Homo sapiens (Human), UniProt Q86WV6, H232R). The test is described as follows: 3H-cGAMP filtration binding assay (WT STING).
Text: The ability of compounds to bind STING is quantified by their ability to compete with tritiated cGAMP ligand for human STING receptor membrane using a radioactive filter-binding assay. The binding assay employs STING receptor obtained from Trichoplusia ni cell membranes (T. ni; Expression Systems, cat #94-002F, www.expressionsystems.com) overexpressing full-length WT STING and tritiated cGAMP ligand.
The basic WT STING filtration assay protocol is as follows:
The filter plates were then dried at 55° C. for 30 min using a pressurized VWR oven before 30 uL of ULTIMA GOLD F scintillate was added to each well. Tritium levels for each reaction well were then measured using a PerkinElmer TopCount plate reader.
as §1

In a further test the test system is THP1 cells. As to the kind of experiment: IFN-β secretion in THP1 cell culture (5 h). The class given is cell-based, human. The settings on record: relative to 30 uM cGAMP. The protocol:
The ability of compounds to stimulate the secretion of interferon-beta from THP1 cells was measured using a human IFN-3 AlphaLISA kit (Perkin Elmer, Cat. No. AL265F). The basic protocol is as follows:
The cell viability and count was ascertained using a Beckman Coulter V-Cell XR cell counter. The cells suspension was centrifuged at 200×g for 5 min at RT. Cells were resuspended to a density of 0.8×10^6/mL in 37° C. assay medium. Subsequent liquid transfers were performed using either a Matrix electronic multichannel pipette or an Agilent Bravo Automated Liquid Handling Platform.
The assay was started by dispensing 40 μL of the previously prepared cell suspension into the wells of the plate containing compounds. After 5 h incubation at 37° C., 5% CO2 in a humidified atmosphere, the plate of cells and compounds was centrifuged at 200×g for 5 min at RT. […] To these supernatant-containing wells was added 10 μL of 5× Anti-Analyte Acceptor beads ([…] of AlphaLISA HiBlock Buffer) and incubated for 30 min at RT while shaking on an orbital plate shaker. To each well was added 10 μL of 5× Biotinylated Antibody Anti-analyte (5 nM in AlphaLISA HiBlock Buffer) and incubated on an orbital plate shaker for 60 min at RT or overnight at 4° C. To each well was added 25 μL of 2× SA-Donor beads ([…] in AlphaLISA HiBlock Buffer) and incubated for 30-45 min at RT in the dark while shaking on an orbital plate shaker. The plate was then read on a Perkin Elmer Envision (λex=680 nm, […]). The percent effect of the AlphaLISA signal at each compound concentration was calculated based on 30 uM cGAMP positive controls and 0.3% DMSO negative controls. The plot of percent effect versus the log of compound concentration was fit with a 4-parameter concentration response equation to calculate EC50 values.
Compounds of the disclosure were evaluated for IFN-3 secretion in THP1 cell culture as described above.

Chain of full-length HAQ STING (Q86WV6 other isoform, or with tags, fused parts or gaps, stated change not applied): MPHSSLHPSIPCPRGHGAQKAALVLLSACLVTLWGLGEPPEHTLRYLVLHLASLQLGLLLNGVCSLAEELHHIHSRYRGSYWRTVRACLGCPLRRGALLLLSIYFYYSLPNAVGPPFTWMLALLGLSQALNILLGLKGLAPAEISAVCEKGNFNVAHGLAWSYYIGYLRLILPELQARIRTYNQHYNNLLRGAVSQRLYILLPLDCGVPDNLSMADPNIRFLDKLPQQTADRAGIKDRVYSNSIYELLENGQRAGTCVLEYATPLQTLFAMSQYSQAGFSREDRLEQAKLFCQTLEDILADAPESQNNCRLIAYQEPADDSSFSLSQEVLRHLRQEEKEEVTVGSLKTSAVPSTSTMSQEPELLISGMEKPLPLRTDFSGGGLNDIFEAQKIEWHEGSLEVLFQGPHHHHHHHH
Chain of full-length WT STING (Q86WV6 other isoform, or with tags, fused parts or gaps H232R (already in the parent)): as the sequence (Q86WV6 other isoform, or with tags, fused parts or gaps, stated change not applied) above, with H71R, A230G, Q293R counted along it

`COc1cc2cc(C(=O)C[C@H](C)C(=O)O)sc2cc1CCF` [Example 46, (2S)-4-[6-(2-fluoroethyl)-5-methoxy-1-benzothiophen-2-yl]-2-methyl-4-oxobutanoic acid]: a half-maximal response on full-length HAQ STING (EC50) required 7.45 µM. In addition, on full-length WT STING (WT STING, compound at 20 uM), the inhibition at 20 µM was 24%. Also, the “% Effect at 30 μM relative to 2’3’-cGAMP” value with THP1 cells stood at 205%.

On full-length HAQ STING, `CCOC(=O)C(C)(O)CC(=O)c1cc2cc(OC)c(OC)cc2s1` (stereo not drawn) [Example 48, Ethyl 4-(5,6-dimethoxybenzo[b]thiophen-2-yl)-2-hydroxy-2-methyl-4-oxobutanoate] showed a 50% effective concentration (EC50) of 19.2 µM. Also, the inhibition at 20 µM at full-length WT STING (WT STING, compound at 20 uM) stood at 23%. Moreover, the “% Effect at 30 μM relative to 2’3’-cGAMP” value in the test on THP1 cells was 71%.

As for `CCC(CC(=O)c1cc2c(F)c(OC)c(OC)cc2s1)C(=O)O` (stereo not drawn) [Example 50, 2-ethyl-4-(4-fluoro-5,6-dimethoxybenzo[b]thiophen-2-yl)-4-oxobutanoic acid], the EC50 on full-length HAQ STING was determined as 0.89 µM; at full-length WT STING (competition with tritiated cGAMP, WT STING membrane), 2.14 µM. Also, in the test with THP1 cells, the “% Effect at 30 μM relative to 2’3’-cGAMP” value amounted to 115%.

Consider `COc1cc2sc(C(=O)[C@H]3C[C@H]3C(=O)O)cc2c(F)c1OC` [Example 51, (1R,2S)-2-(4-fluoro-5,6-dimethoxybenzo[b]thiophene-2-carbonyl)cyclopropane-1-carboxylic acid], for which it took 17.8 µM to reach a half-maximal effect on full-length HAQ STING (EC50). The inhibition at 20 µM at full-length WT STING (WT STING, compound at 20 uM) is 3%. The “% Effect at 30 μM relative to 2’3’-cGAMP” value in the test on THP1 cells is reported as 31%.

In the case of `COc1cc2sc(C(=O)[C@@H]3C[C@@H]3C(=O)O)cc2c(F)c1OC` [Example 52, (1S,2R)-2-(4-fluoro-5,6-dimethoxybenzo[b]thiophene-2-carbonyl)cyclopropane-1-carboxylic acid], the concentration for a half-maximal effect (EC50) on full-length HAQ STING amounted to 0.599 µM. The inhibition at 20 µM on full-length WT STING (WT STING, compound at 20 uM) is 101%. In addition, the “% Effect at 30 μM relative to 2’3’-cGAMP” value in the test on THP1 cells worked out at 142%.

The molecule `COc1cc2cc(C(=O)CCC(=O)O)sc2cc1OC(F)F` [Example 53, 4-(6-(difluoromethoxy)-5-methoxybenzo[b]thiophen-2-yl)-4-oxobutanoic acid] displayed a half-maximal effective concentration (EC50) on full-length HAQ STING of 13.7 µM. In addition, at full-length WT STING (WT STING, compound at 20 uM), the inhibition at 20 µM was 7%. Also, the “% Effect at 30 μM relative to 2’3’-cGAMP” value in the test on THP1 cells is recorded as 182%.

As for “(S)-4-(5,6-dimethylbenzo [b]thiophen-2-y1)- 2-methyl-4- oxobutanoic acid [Example 31]”, the EC50 at full-length HAQ STING was 5.94 µM. The “% Inh @ 20 uM” value on full-length WT STING (WT STING, compound at 20 uM) was found to be 10% Inh @ 20 μM. Besides, in the test on THP1 cells, the “% Effect at 30 μM relative to 2’3’-cGAMP” value turned out to be 24%.
